Reference: patent publication US8008354B2, “Death receptor sensitizing compounds and methods of use therefor” (Burnham Institute for Medical Research, priority 2006, dated 2011)

Test system: dsRed-PPC-1 cells
Test: In vivo survival and growth of pre-treated dsRed-PPC-1 cells injected into SCID mice
Experimental: FIG. 16. Decreases in cellular FLIP levels by siRNA diminishes the in vivo survival and growth of circulating prostate cancer cells. (A) Fluorescent dsRed-PPC-1 cells were transfected in culture with anti-FLIP siRNA (siFLIP, 25 nM) or control siRNA (siCtrl, 25 nM). Eight hours after transfection cells were harvested and 3.5×10^6 viable cells were injected into the tail veins of sublethally irradiated SCID mice. Five weeks after injection, or when mice became moribund, mice were sacrificed and their organs imaged using a fluorescent microscope (n=9). Representative images of tumor formation in the lung, bone, and liver are shown. (B) The total number and area of distant tumors from mice described above were quantified using image analysis software. Tumors were quantified from all five lobes of the lungs. Data points represent measurements from each mouse. Differences in the number and area of tumors are significant by the rank sum test. The bar represents the median of the population. Measurements were completed on unaltered images.
FIG. 17. Decreases in cellular FLIP levels by 5809354 diminishes the in vivo survival and growth of circulating prostate cancer cells. (A) Fluorescent dsRed-PPC-1 cells were treated in culture with 5809354 (30 μM) or buffer control. Sixteen hours after treatment cells were harvested and 3.5×10^6 viable cells were injected into the tail veins of sublethally irradiated SCID mice. Five weeks after injection, or when mice became moribund, mice were sacrificed and their organs imaged using a fluorescent microscope (n=8). Representative images of tumor formation in the lung, bone, and liver are shown. (B) The number and area of distant tumors from mice described above were quantified using image analysis software. Tumors were quantified from all five lobes of the lungs. Data points represent measurements from each mouse. Differences in the number and area of tumors are significant by the rank sum test. […]
In vivo studies. […] 3.5×10^6 viable cells (as measured by trypan blue exclusion assay) were either injected via the tail vein or subcutaneously into the hind limbs into sublethally irradiated (3.5 Gy) SCID mice (10 mice per treatment). […] Red fluorescent tumors were detected via whole body imaging and whole organ imaging using a Leica MZ FLIII fluorescent stereomicroscope with a 100 W mercury lamp, a 560/40 excitation filter, and a 610 long-pass emission filter. Images were acquired using a Leica DC350 digital camera at 0.8× magnification and analyzed using Image Pro Plus 6.0 (MediaCybernetics). A single common threshold was applied to identify and measure fluorescence in each organ (Cairns et al., 2004). The number of fluorescent spots and the corresponding pixel area were recorded for each lung lobe. All quantification was performed on unmanipulated images. […]

“4-(4-chloro-2-methylphenoxy)-N-hydroxybutanamide [compound 5809354]” was tested, and the Median survival (cells treated in culture (5809354 30 μM 16 hours; FLIP siRNA 25 nM 8 hours), injected into tail veins of sublethally irradiated SCID mice) was 32 days, the “tumor formation in lung, bone, and liver” value (intravenous injection of treated cells, five weeks or when moribund) was “decreased tumor formation” and the “median tumor number and median total tumor area within the lung” value (intravenous injection of treated cells, image-based analysis) was “decreased”. For the same substance, the “tumor weight after subcutaneous injection” value (subcutaneous injection of treated cells, 3 weeks (data not shown)) was “no difference”.
